Experimental data taken from PMC7822874, “Chemoprotective antimalarials identified through quantitative high-throughput screening of Plasmodium blood and liver stage parasites” (Scientific Reports, 2021).
Several values for one entry are separate records, joined by “and”; a condition that tells them apart may be missing. Equal entries are not always repeated. Where two headings read alike, the source gives them in different places.

Assays:
[1] = system: T1, Plasmodium falciparum Dd2-attB (parental line), asexual blood stages; experiment: microbe, parasite or virus in culture; set-up: species or system P. falciparum Dd2-attB in human erythrocytes; SYBR Green-I proliferation assay, Dd2-attB parental line, asexual blood stages; conditions: 72 h; for AC50: Plasmodium falciparum, DD2, Erythrocyte, read-out: Calculated / Average Log AC50 (M), mean of replicates, 72 h (converted)
T1 construct: Dd2-attB, the isogenic parental line

[2] = system: T2, Plasmodium falciparum Dd2-attB-ScDHODH (transgenic line expressing yeast DHODH), asexual blood stages; experiment: organism not typed; set-up: replicate k of 3 (each line is one of three independent assays; the three lines of one compound and parasite line follow each other); conditions: 72 h, n = 1; for AC50: read-out: Individual replicates / Log AC50 (converted)
T2 construct: Dd2-attB-ScDHODH, the transgenic line that expresses yeast DHODH
Method in brief: (§1)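 Statistics: two-sided Student's t-test between parental and transgenic values, from three independent assays. The transgene encodes a fumarate-dependent DHODH from yeast, independent of the parasite mETC.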

[3] = system: T1, Plasmodium falciparum Dd2-attB (parental line), asexual blood stages; experiment: microbe, parasite or virus in culture; set-up: replicate k of 3 (each line is one of three independent assays; the three lines of one compound and parasite line follow each other); conditions: n = 1; for Individual replicates / Log AC50 (M): 72 h; for AC50: Plasmodium falciparum, DD2, 72 h, read-out: Individual replicates / Log AC50 (converted)
Method in brief: as §1

SMILES	AC50 [1] [M]	AC50 [2] [µM]	Individual replicates / Log AC50 (M) [3]	AC50 [3] [µM]	Individual replicates / Log AC50 (M) [2]	Calculated / Average Log AC50 (M) ([1]; mean of replicates, inhibitor, Calculated / Average Log AC50 (M))
NC1CCN(c2cnc3c(O)ccc(C(=O)O)c3c2)CC1 [NCGC00241035-01]	1.42e-05	17.8	-4.7986 Log AC50 (M) and -4.9986 Log AC50 (M)	17.8	–	–
CN(C)CCCOc1ccc(-c2cc(O)c3ncccc3c2)cn1 [NCGC00247741-01]	9.65e-06	–	-4.7986 Log AC50 (M) and -5.1486 Log AC50 (M) and -5.0986 Log AC50 (M)	–	-4.7486 Log AC50 (M) and -5.0486 Log AC50 (M)	–
CC(C)OC(=O)c1ccnc2cc(C(OCCN3CCCCC3)c3cccc(NC(=O)/C=C/CN(C)C)c3)sc12 (stereo not shown) [NCGC00493268-01]	3.3e-06	–	-5.5986 Log AC50 (M) and -5.5486 Log AC50 (M)	5.03	-5.4486 Log AC50 (M) and -5.1486 Log AC50 (M)	–
O=C(Nc1ccc(O)c2ncccc12)c1ccccc1F [NCGC00184884-01]	7.38e-06	–	-5.2486 Log AC50 (M) and -4.9486 Log AC50 (M)	6.33	-4.8486 Log AC50 (M) and -5.0986 Log AC50 (M)	–
CN(C)CCNC(=O)c1ccc(-c2cc(O)c3ncccc3c2)cc1 [NCGC00247749-01]	1.13e-05	17.8	-4.9986 Log AC50 (M) and -5.0486 Log AC50 (M)	15.9	–	–
Cc1ccc(NC(=O)C(N[S+](=O)([O-])c2ccc3c(c2)CCC(=O)N3)c2ccccc2)cc1C (stereo not shown) [NCGC00110290-01]	1.59e-05	8.94	–	17.8	–	–
O=[S+]([O-])(Nc1ccc(O)c2ncccc12)c1ccccc1F [NCGC00184887-02]	1e-05	–	-4.8986 Log AC50 (M) and -5.0486 Log AC50 (M) (2×)	–	-4.9486 Log AC50 (M) and -4.8486 Log AC50 (M)	–
COc1cccc(NCc2ccc(O)c3ncccc23)n1 [NCGC00241024-01]	1.13e-05	12.6	-4.8986 Log AC50 (M) and -5.0486 Log AC50 (M)	12.6	-4.8486 Log AC50 (M)	–
Cc1ccccc1Nc1c(-c2ccccc2O)nc2sccn12 [NCGC00105919-03]	1.08e-05	8.94	-4.8986 Log AC50 (M) and -5.0986 Log AC50 (M)	12.6	-4.8486 Log AC50 (M) and -5.0486 Log AC50 (M)	–
Cc1nn2c(c1-c1ccccc1Oc1ccccc1)N(Cc1ccccc1)CCC2 [NCGC00499717-01]	1.42e-05	15.9	-4.9986 Log AC50 (M) and -4.7486 Log AC50 (M)	15.9	-4.7986 Log AC50 (M)	–
COC(=O)c1ccnc2cc(C(OCCN3CCC(F)(F)CC3)c3ccccc3Cl)[nH]c12 (stereo not shown) [NCGC00408945-01]	1.42e-05	15.9	–	10	–	–
CCOC(=O)c1ccc(O)c2ncc(NCC3CCCN(CCc4ccccc4)C3)cc12 (stereo not shown) [NCGC00241755-01]	8.28e-06	6.33	-5.1486 Log AC50 (M) and -4.8986 Log AC50 (M)	6.33	-5.0986 Log AC50 (M)	–
CN(C)c1cnc2c(O)ccc([S+](=O)([O-])Nc3ccccc3F)c2c1 [NCGC00189501-01]	9.29e-06	14.2	-5.0986 Log AC50 (M)	12.6	-4.9986 Log AC50 (M) and -4.7986 Log AC50 (M)	–
CCCCN1CCCc2cc(CN(CCCN3CCOCC3)C(=O)Nc3ccc(OCC)cc3)ccc21 [NCGC00140593-02]	1.36e-05	17.8	-4.9986 Log AC50 (M) and -4.7986 Log AC50 (M)	15.9	-4.8486 Log AC50 (M) and -4.7986 Log AC50 (M)	–
CC1CN(Cc2ccccc2)CCN1c1cnc2c(O)ccc(C(=O)O)c2c1 (stereo not shown) [NCGC00249384-01]	1.59e-05	17.8	–	14.2	–	–
CCOC(=O)c1ccc(O)c2ncc(N3CCNCC3)cc12 [NCGC00241046-01]	5.86e-06	5.03	-5.2986 Log AC50 (M) and -5.0986 Log AC50 (M)	5.03	-5.3486 Log AC50 (M)	–
O=C(NC1=CC(=O)c2ccccc2C1=O)c1ccccc1 [MLS002693850-02]	3.56e-06	–	-5.5986 Log AC50 (M) (2×) and -5.1486 Log AC50 (M)	–	-5.5486 Log AC50 (M) and -5.0986 Log AC50 (M)	–
O=C1c2ccccc2C(=O)C1c1ccc(C(F)(F)F)cc1 [NCGC00510065-01]	1.36e-05	17.8	-4.7486 Log AC50 (M) (2×) and -5.0986 Log AC50 (M)	–	-4.6986 Log AC50 (M) and -4.7486 Log AC50 (M)	–
O=C(Cc1ccc(O)cc1)N1CCC2(C1)CN(c1ccccc1)C2 [NCGC00510421-01]	1.26e-05	14.2	-4.9486 Log AC50 (M)	14.2	-4.7986 Log AC50 (M) and -4.7486 Log AC50 (M)	–
CCCN1C(CC(C)C)=N[S+](=O)([O-])c2cc(NC(=O)c3ccccc3)ccc21 [NCGC00510420-01]	4.48e-07	–	-6.5486 Log AC50 (M) and -6.1986 Log AC50 (M) and -6.2986 Log AC50 (M)	–	-6.0486 Log AC50 (M) and -5.5486 Log AC50 (M) and -5.8486 Log AC50 (M)	–
CN(C)CCCNC(=O)c1cccc(-c2cc(O)c3ncccc3c2)c1 [NCGC00244527-01]	1.22e-05	8.94	-5.0486 Log AC50 (M) and -4.8486 Log AC50 (M)	14.2	-4.7986 Log AC50 (M)	–
CN(Cc1ccco1)Cc1ccc(O)c2ncccc12 [NCGC00183374-01]	1.47e-05	12.6	–	8.94	-4.7986 Log AC50 (M)	–
O=C(NCCCCN1CCOCC1)c1cccc(-c2cc(O)c3ncccc3c2)c1 [NCGC00249385-01]	7.97e-06	–	-5.1986 Log AC50 (M) and -4.8986 Log AC50 (M)	6.33	-5.2486 Log AC50 (M) and -5.1486 Log AC50 (M) and -4.8486 Log AC50 (M)	–
O=C(O)c1ccc(O)c2ncc(N3CCCN(CCc4cccc5ccccc45)CC3)cc12 [NCGC00247751-02]	9.65e-06	–	-5.1486 Log AC50 (M)	6.33	-5.2486 Log AC50 (M) and -4.7486 Log AC50 (M)	–
Oc1ccc(CNc2cc(C(F)(F)F)ccn2)c2cccnc12 [NCGC00241027-01]	1e-05	7.1	-5.0986 Log AC50 (M) and -5.0486 Log AC50 (M)	14.2	-4.8486 Log AC50 (M)	–
COc1ccc(NCc2cccn2-c2nnc(N3CCC(C)CC3)s2)c(OC)c1 [NCGC00127038-02]	1.26e-05	14.2	-4.9986 Log AC50 (M)	17.8	-4.7486 Log AC50 (M) and -4.7986 Log AC50 (M)	–
O=C(O)c1ccnc(-n2ncc(C(OCCN3CCCCC3)c3ccccc3Cl)c2-c2cccc(-c3ccccc3)c2)c1 (stereo not shown) [NCGC00481640-01]	–	–	-5.0486 Log AC50 (M) and -4.8986 Log AC50 (M) (2×)	–	-4.7986 Log AC50 (M) and -4.8486 Log AC50 (M)	-4.9486
CCC(C)C1=N[S+](=O)([O-])c2cc(NC(=O)C3CC3)ccc2N1c1ccccc1 (stereo not shown) [NCGC00474156-01]	1.93e-06	8.94	-5.9486 Log AC50 (M) and -5.5986 Log AC50 (M) (2×)	–	-5.1986 Log AC50 (M) and -5.1486 Log AC50 (M)	–
